Results from PMC11469322, “Anti‐HER2 Super Stealth Immunoliposomes for Targeted‐Chemotherapy” (Advanced Healthcare Materials, 2023).
Read-outs that look alike come from different tables or passages of the source.

Legend:
SKBR3 cells = assay: In vitro cytotoxicity, ATPlite luminescence assay; assay type: cell-based; conditions: Homo sapiens, SK-BR-3; SKBR3 (HER2+), 24 h treatment + 24 h fresh medium, µM in DXR
Protocol: (§1) For cytotoxicity experiments, four human cancer cell lines were used, that is, three HER2+ BT474 (ATCC HTB‐20), SKBR3 (ATCC HTB‐ 30) and SKOV3 (ATCC HTB‐77), and the HER2‐ MDA‐MB‐231 (ATCC HTB‐26). Cells were maintained in DMEM medium supplemented with 10% fetal bovine serum (FBS), 1% glutamine, 1% penicillin‐streptomycin, in humidified conditions at 37 °C with 5% CO2.
(§2) The cytotoxic effect of formulations was evaluated on HER2+ (BT474, SKBR3, and SKOV3) and HER2‐ (MDA‐MB‐231) cell lines by means of the ATPlite Luminescence ATP Detection Assay System. The cytotoxic effect of targeted DXR‐loaded liposomal formulations was compared to that of non‐targeted DXR‐loaded liposomes and free DXR (positive control). Cells treated only with the medium were used as control. Briefly, the cells were seeded in black 96‐well plates at a density of 5000 cells/well (SKBR3, SKOV3, and MDA‐MB‐231) and 7500 cells/well (BT474). After 24 h, cells were treated with increasing concentrations of the liposomal formulations (0.01–50 µM in DXR, n = 7) for 24 (SKBR3, SKOV3, and MDA‐MB‐231) or 48 (BT474) h. At the end of the exposure, treatments were replaced by fresh complete medium for 24 h. To quantify ATP production, cells were treated following the manufacturer's instructions, and luminescence was quantified by means of a Victor Nivo multi‐plate reader (PerkinElmer, Waltham, MA, USA). The percentage of cell viability was determined as (luminescencetreated cells/luminescencecontrol cells) × 100. IC50 values were calculated using GraphPad Prism 9.0 (San Diego, CA, USA) by a nonlinear regression model.

SKOV3 cells = assay: In vitro cytotoxicity, ATPlite luminescence assay; assay type: cell-based; conditions: Homo sapiens, SK-OV-3; SKOV3 (HER2+), 24 h treatment + 24 h fresh medium, µM in DXR
Protocol: as §1, §2

BT474 cells = assay: In vitro cytotoxicity, ATPlite luminescence assay; assay type: cell-based; conditions: Homo sapiens, BT-474; BT474 (HER2+), 48 h treatment + 24 h fresh medium, µM in DXR
Protocol: as §1, §2

[1] = Toxicological study in rats (blood count, plasma biochemistry, histology); assay type: in vivo, Sprague Dawley rats
Excerpt: The study protocol was approved by the Ethics Committee of the University of Padova and the Italian Ministry of Health (Prot. No. 938/2016‐PR obtained on October 10, 2016), and animals were handled in compliance with national and international guidelines, that is, the Italian Legislative Decree 26/2014 and the “Guide for the Care and Use of Laboratory Animals” by the National Research Council of the National Academies. Female Sprague Dawley rats (140–190 g) were randomly divided into groups of 6 rats each. A dose of 2.5 mg kg^−1 in DXR of either free drug or DXR‐loaded liposomal formulations (SL, SIL, SSIL2) was administered via tail vein to the rats previously anesthetized with isoflurane gas (mixed with O2 in enclosed cages). At scheduled time points, blood samples (≈200 µL) were collected from the tail into heparin‐treated tubes and thereafter immediately centrifuged 15 min × 1500 × g to separate plasma. Rats were euthanized with isoflurane anesthesia 48 h after administration and the blood was collected with an intracardiac puncture to measure complete blood count and plasma biochemistry. These measurements were performed by means of standard laboratory tests.^[ [27] ^] After sacrifice, the main organs (liver, spleen, lungs, kidneys, heart, brain, ovaries) were collected, weighed, washed with saline solution, and frozen in liquid nitrogen. An appropriate amount of each organ was placed in formalin for histological analysis.^[ [28] ^]

[2] = Pharmacokinetic study in rats; assay type: in vivo, Sprague Dawley rats; conditions: 2.5 mg kg^−1 in DXR i.v.; for half-life: female, Sprague Dawley, rat, plasma, iv, 2.5 mg/kg, bicompartmental model
Protocol: DXR was extracted by treating 50 µL of plasma with 10 µL of 1 M Triton X‐100 and 580 µL of 81 mM HCl in isopropanol to allow plasma proteins precipitation. After overnight incubation at 4 °C, samples were centrifuged for 3 min × 3000 rpm and the supernatants were analyzed using an FP‐6500 Jasco spectrofluorometer (λ ex = 470 nm; λ em = 584 nm). DXR concentration in each plasma sample was extrapolated through a calibration curve of standard solutions of either DXR or DXR‐loaded SL for the liposomal formulations. The pharmacokinetic analysis was performed using the PKSolver 2.0 software by applying a bicompartmental model.

COc1cccc2c1C(=O)c1c(O)c3c(c(O)c1C2=O)C[C@@](O)(C(=O)CO)C[C@@H]3O[C@H]1C[C@H](N)[C@H](O)[C@H](C)O1 [DXR, Doxorubicin]
IC50 (SKBR3 cells): 0.034 ± 0.026 µM | IC50 (SKOV3 cells): 0.092 ± 0.004 µM | IC50 (BT474 cells): 0.08 ± 0.003 µM | Anemia (red blood cells, hemoglobin, hematocrit decreased versus controls) ([1]; 2.5 mg kg^−1 in DXR i.v., 48 h): anemic | Erythrocytes (RBCs) ([1]; 2.5 mg kg^−1 in DXR i.v., 48 h): 4.61e+12 L⁻¹ | Hematocrit ([1]; 2.5 mg kg^−1 in DXR i.v., 48 h): 0.286 L/L | Hemoglobin ([1]; 2.5 mg kg^−1 in DXR i.v., 48 h): 93 ± 10 g/L | Liver histology ([1]; 2.5 mg kg^−1 in DXR i.v., 48 h): small and isolated granulomatous lesion | MCH ([1]; 2.5 mg kg^−1 in DXR i.v., 48 h): 20.3 ± 0.4 pg | MCHC ([1]; 2.5 mg kg^−1 in DXR i.v., 48 h): 329 ± 20 g/L | MCV ([1]; 2.5 mg kg^−1 in DXR i.v., 48 h): 61.8 ± 2.9 fL | Platelets (PLTs) ([1]; 2.5 mg kg^−1 in DXR i.v., 48 h): 811 ± 402 x109/L | RDW ([1]; 2.5 mg kg^−1 in DXR i.v., 48 h): 11.8 ± 0.5% | Spleen histology ([1]; 2.5 mg kg^−1 in DXR i.v., 48 h): slight increased hematopoiesis | Leukocytes (WBCs) ([1]; 2.5 mg kg^−1 in DXR i.v., 48 h after administration): 2.05 ± 1.15 x109/L | Glucose ([1]; plasma biochemistry, 2.5 mg kg^−1 in DXR i.v., 48 h): 10.7 ± 0.8 mmol/L | ALP ([1]; plasma biochemistry, 48 h): 143 ± 36 U/L | ALT ([1]; plasma biochemistry, 48 h): 20 ± 6 U/L | AST ([1]; plasma biochemistry, 48 h): 78 ± 16 U/L | Albumin ([1]; plasma biochemistry, 48 h): 42 ± 3 g/L | Calcium ([1]; plasma biochemistry, 48 h): 2.67 ± 0.09 mmol/L | Chloride ([1]; plasma biochemistry, 48 h): 102 ± 2 mmol/L | Creatinine ([1]; plasma biochemistry, 48 h): 16 ± 2 µM | Direct bilirubin ([1]; plasma biochemistry, 48 h): 0.3 ± 0.2 µM | Inorganic Phosphorous ([1]; plasma biochemistry, 48 h): 2.45 ± 0.16 mmol/L | Potassium ([1]; plasma biochemistry, 48 h): 3.9 ± 0.4 mmol/L | Sodium ([1]; plasma biochemistry, 48 h): 142 ± 1 mmol/L | Total bilirubin ([1]; plasma biochemistry, 48 h): 0.4 ± 0.2 µM | Total cholesterol ([1]; plasma biochemistry, 48 h): 64 ± 9 mg/dL | Triglycerides ([1]; plasma biochemistry, 48 h): 64 ± 37 mg/dL | Urea ([1]; plasma biochemistry, 48 h): 4.7 ± 0.2 mmol/L | AUC0‐inf [2]: 60 ± 31 ng·h/mL | half-life ([2]; read-out: t 1/2 alpha (converted)): 34.4 ± 21.6 min | half-life ([2]; read-out: t 1/2 beta (converted)): 79.1 ± 48.7 min
